Measured values as given in patent publication US7888527B2 (University of Virginia Patent Foundation, priority 2004, dated 2011).
Entries after “also recorded” stand apart in the source; their conditions may differ.

Columns and labels:
S1P2 receptor [1] = molecular target: T1, S1P2 receptor (Homo sapiens, UniProt O95136); experiment: [γ-35S]GTP binding assay, HEK293T membranes; format: biochemical
T1 construct: expressed in transfected cells; host or cells: HEK293T, transient transfection; membranes
T1 sequence (O95136 whole entry): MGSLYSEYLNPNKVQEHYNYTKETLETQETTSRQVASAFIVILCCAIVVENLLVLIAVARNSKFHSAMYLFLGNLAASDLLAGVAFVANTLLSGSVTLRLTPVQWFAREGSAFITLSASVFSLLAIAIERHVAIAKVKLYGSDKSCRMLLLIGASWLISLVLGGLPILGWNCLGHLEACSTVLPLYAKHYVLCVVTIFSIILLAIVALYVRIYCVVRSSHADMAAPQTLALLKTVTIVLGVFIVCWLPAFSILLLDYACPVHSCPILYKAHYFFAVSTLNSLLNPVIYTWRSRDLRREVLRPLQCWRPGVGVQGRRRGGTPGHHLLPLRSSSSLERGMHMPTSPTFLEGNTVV
Source text: (§1) The appropriate receptor plasmid DNA (encoding human S1P1, human S1P2, human S1P3, human S1P4, human S1P5, human LPA1, human LPA2 or human LPA3 receptors) is mixed with equal amounts of expression plasmids encoding human Gi2α (for S1P3, a mutated (C352F) rat Gi2α is used), cow β1, and cow γ2 proteins, and these DNAs are used to transfect monolayers of HEK293T cells (where ‘T’ indicates expression of the SV-40 virus large T antigen) using the calcium phosphate precipitate method (7). After about 60 hours, cells are harvested, membranes prepared, aliquoted, and stored at −70° C. until use (8).
(§2) The [γ-^35S]GTP binding assay is performed as described previously (8). Membranes containing 1-5 μg of protein are incubated in 0.1 ml of binding buffer (in mM: HEPES/50, NaCl/100, MgCl2/10, pH 7.5) containing 5 μg of saponin, 10 μM GDP, 0.1 nM [γ-^35S]GTP (1200 Ci/mmol), and indicated lipid(s) for 30 min at 30° C. and collected using a Brandel Cell Harvester (Gaithersburg, Md.). Samples are then analyzed for bound radionuclide.
(§3) Statistical Analysis. The EC50 and IC50 values for all dose response curves were determined by nonlinear regression analysis of all data using the Graphpad Prism© program. The error associated with the data collected is reported as the standard error of the mean (S.E.M).

S1P2 receptor [2] = molecular target: T1, S1P2 receptor; experiment: [32P]S1P binding assay; conditions: concentrations up to 10 μM (data not shown)
Description: (§4) [^32P]-S1P was prepared by incubating sphingosine and [γ-^32P]ATP with cell lysate from HEK293T cells transiently transfected with human sphingosine kinase type 2 DNA. The 200 μl reaction contained 0.025 mM sphingosine, 1 mCi [γ-^32P]ATP (7000 Ci/mmol) and kinase buffer (in mM: Mg(C2H3O2)2 (in 50 mM Tris, pH 7.5)/10, NaF/10, and semicarbizide/2). The reaction was initiated by the addition of 20 μg of cell lysate and incubated at 37° C. for at least 30 minutes. […] The organic layer was isolated and the extraction procedure repeated two additional times with the remaining aqueous fraction. The combined organic fractions were dried under a stream of nitrogen gas and resuspended in aqueous 0.1% fatty acid free BSA.
(§5) Bound ligand was separated from free ligand by rapid filtration and analyzed in a liquid scintillation counter.

[3] = system: LPA1-3 EDG-family receptors; experiment: Activity at LPA receptors; format: biochemical, human; conditions: concentrations up to 30 μM
Source text: as §1, §2

human S1P3 receptor [4] = molecular target: T2, human S1P3 receptor (Homo sapiens, UniProt Q99500); experiment: Intracellular calcium mobilization, T24 cells transfected stably with human S1P3 receptor; format: cell-based; parameters: expressed in transfected cells
T2 sequence (Q99500 whole entry): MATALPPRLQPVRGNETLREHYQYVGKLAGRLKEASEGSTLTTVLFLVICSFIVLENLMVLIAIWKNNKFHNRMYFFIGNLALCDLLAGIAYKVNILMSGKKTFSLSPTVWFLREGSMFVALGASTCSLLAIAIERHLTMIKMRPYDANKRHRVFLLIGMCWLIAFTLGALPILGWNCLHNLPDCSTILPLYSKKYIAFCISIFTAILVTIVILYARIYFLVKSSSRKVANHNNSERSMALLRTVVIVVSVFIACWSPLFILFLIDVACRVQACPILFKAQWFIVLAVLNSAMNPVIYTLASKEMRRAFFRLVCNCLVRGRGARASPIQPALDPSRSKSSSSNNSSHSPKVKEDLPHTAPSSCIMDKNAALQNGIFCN
Description: […] monolayers are co-transfected with the human S1P1, S1P2, S1P3 receptor encoding DNAs and the pIRESpuro2 plasmid DNA (Clontech, San Jose, Calif.,) using either Lipofectamine 2000 (Invitrogen, Carlsbad, Calif.) or FuGENE 6 (Roche Applied Science, Indianapolis, Ind.). Clonal populations expressing the puromycin acetyltransferase gene are selected by addition of puromycin (Sigma-Aldrich, St. Louis, Mo.) to the culture media. T24 cells are grown in monolayers at 37° C. in a 5% CO2/95% air atmosphere in growth media consisting of: 95% DMEM/F-12 medium and 10% charcoal/dextran stripped FBS.
A FlexStation™ fluorimeter (Molecular Devices, Menlo Park, Calif.) was used to measure intracellular calcium in native T24 cells and T24 cells transfected stably with either human S1P2 or human S1P3 receptor DNA. Cells were seeded (˜50,000 cells/well) in 96-well, clear bottom black microplates (Corning Costar Corp.) and left overnight at 37° C. The cells were dye-loaded with 4 μM Fluo-4AM ester in a loading buffer (Hank's Balanced Salt Solution, […], containing 20 mM HEPES, 0.1% fatty acid free BSA, and 2.5 mM probenecid) for 30 minutes at 37° C. After washing cell monolayers three times with phosphate buffered saline, loading buffer was added and the cells exposed to sets of compounds for 3 minutes at 25° C. in the FlexStation™. In all cases, each concentration of every compound was tested in at least triplicate. […] The cells were washed with phosphate buffered saline and exposed to compounds immediately, as described above.
(§6) Briefly, nonlinear analysis of the best-fit line generated by plotting the negative log of the EC50 values obtained from agonist dose-response curves, in the absence and presence of varying concentrations of antagonist, was plotted against the concentration of antagonist to give the Kb value.

human S1P3 receptor [5] = molecular target: T2, human S1P3 receptor; experiment: [γ-35S]GTP binding assay, HEK293T membranes (agonism and Schild antagonism); format: biochemical; parameters: expressed in transfected cells; host or cells: HEK293T, transient transfection; membranes
Source text: as §1, §2, §6, §3

human S1P1 receptor = human S1P1 receptor (Homo sapiens, UniProt P21453); experiment: [32P]S1P binding assay, HEK293T membranes; parameters: expressed in transfected cells; host or cells: HEK293T, transient transfection; membranes; conditions: read-out: pKi S1P1 (converted)
Sequence of human S1P1 receptor (P21453 whole entry): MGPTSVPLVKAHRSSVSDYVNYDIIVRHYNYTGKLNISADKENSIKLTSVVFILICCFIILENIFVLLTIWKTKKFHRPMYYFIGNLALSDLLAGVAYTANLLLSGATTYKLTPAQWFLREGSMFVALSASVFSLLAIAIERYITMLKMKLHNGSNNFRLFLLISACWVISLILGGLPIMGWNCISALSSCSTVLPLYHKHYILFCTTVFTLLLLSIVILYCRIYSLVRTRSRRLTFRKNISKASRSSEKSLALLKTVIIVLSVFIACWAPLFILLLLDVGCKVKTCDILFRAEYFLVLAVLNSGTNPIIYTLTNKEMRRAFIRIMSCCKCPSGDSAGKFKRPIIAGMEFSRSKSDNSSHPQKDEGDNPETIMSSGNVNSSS
Description: as §4, §5, §3

human S1P3 receptor [6] = molecular target: T2, human S1P3 receptor; experiment: [32P]S1P binding assay, HEK293T membranes; parameters: expressed in transfected cells; host or cells: HEK293T, transient transfection; membranes; conditions: read-out: pKi S1P3 (converted)
Description: as §4, §5, §3

Activity at the S1P2 receptor (S1P2 receptor [1]): devoid of agonist activity
EC50 (S1P2 receptor [1]; -log molar concentration giving 50% of maximal [γ-35S]GTP binding, ± S.E.M., read-out: pEC50 S1P2 (converted)): > 10 µM
Influence on binding of [32P]S1P to the S1P2 receptor (S1P2 receptor [2]): did not influence the binding
Agonist activity at LPA1-3 receptors [3]: neither agonist activity
Reversibility of antagonism after washout, Ca2+ mobilization (human S1P3 receptor [4]; 10000 nM VPC23019 pre-treatment followed by washout): recovered fully
Agonist activity at the S1P3 receptor (human S1P3 receptor [5]): lacked agonist activity
Inverse agonism profile at S1P3 (human S1P3 receptor [5]; VPC23019 concentrations greater than 100 nM): a profile suggesting inverse agonism
Kb (human S1P3 receptor [5]; read-out: pKb S1P3 (converted)): 1.05 µM
Ki (human S1P1 receptor): 0.0138 µM
Ki (human S1P3 receptor [6]): 1.17 µM
SMILES: CCCCCCCCc1cccc(NC(=O)[C@H](N)COP(=O)(O)O)c1 [VPC23019]
Agonist or antagonist activity at the human S1P2 receptor (S1P2 receptor [1]; concentrations up to 10 micromolar): inactive as either an agonist or antagonist
Competitive behaviour in calcium mobilization assay (nonlinear regression) (human S1P3 receptor [4]; T24-S1P3 cells): did not behave as a competitive antagonist
Calcium mobilization by compound alone (human S1P3 receptor [4]; T24-S1P3 cells versus wild-type T24 cells): not a result of stimulation of the S1P3 receptor
Antagonism of S1P at the S1P3 receptor (human S1P3 receptor [5]; [γ-35S]GTP binding, S1P with increasing VPC23019, Lew and Angus regression): dose-dependent, parallel rightward shift; also recorded: competitive antagonist
Agonist efficacy class S1P3 (human S1P3 receptor [5]; relative to S1P Emax): na (no agonist activity (<10% of S1P Emax))
